Source: ChEMBL document CHEMBL1140507, “Synthesis and evaluation of N-acylsulfonamide and N-acylsulfonylurea prodrugs of a prostacyclin receptor agonist” (Bioorg Med Chem, 2007)

How the values were obtained:
[1] = Hydrolytic rate in cynomolgus monkey hepatic microsomes assessed as 2-(4-((5,6-diphenylpyrazin-2-yl)(isopropyl)amino)butoxy)acetic acid production per mg of protein at 10 uM; assay type: ADME, Macaca fascicularis, Liver
[2] = test system: Liver microsomes; assay: Hydrolytic rate in human hepatic microsomes assessed as 2-(4-((5,6-diphenylpyrazin-2-yl)(isopropyl)amino)butoxy)acetic acid production per mg of protein at 10 uM; assay type: ADME, Microsome
[3] = test system: Cynomolgus monkey; assay: Tmax in cynomolgus monkey assessed as 2-(4-((5,6-diphenylpyrazin-2-yl)(isopropyl)amino)butoxy)acetic acid level at 1 mg/kg, po; assay type: ADME, organism-based, Macaca fascicularis; parameters: dose 1 mg/kg, route oral; details: in vivo
[4] = test system: Cynomolgus monkey; assay: Cmax in cynomolgus monkey assessed as 2-(4-((5,6-diphenylpyrazin-2-yl)(isopropyl)amino)butoxy)acetic acid level at 1 mg/kg, po; assay type: ADME, organism-based, Macaca fascicularis; parameters: dose 1 mg/kg, route oral; details: in vivo
[5] = test system: Cynomolgus monkey; assay: AUC (0 to 24 hrs) in cynomolgus monkey assessed as 2-(4-((5,6-diphenylpyrazin-2-yl)(isopropyl)amino)butoxy)acetic acid at 1 mg/kg, po; assay type: ADME, organism-based, Macaca fascicularis, Plasma; parameters: time < 24 hr, dose 1 mg/kg, route oral; details: in vivo
[6] = test system: Cynomolgus monkey; assay: Half life in cynomolgus monkey assessed as 2-(4-((5,6-diphenylpyrazin-2-yl)(isopropyl)amino)butoxy)acetic acid at 1 mg/kg, po; assay type: ADME, organism-based, Macaca fascicularis; parameters: dose 1 mg/kg, route oral; details: in vivo
[7] = Hydrolytic rate in cynomolgus monkey hepatic microsomes assessed as 2-(4-((5,6-diphenylpyrazin-2-yl)(isopropyl)amino)butoxy)acetic acid production in presence of 10 uM PMSF relative to control; assay type: ADME, Macaca fascicularis, Liver; parameters: scale not given: the % may be the effect or the level left
[8] = Hydrolytic rate in cynomolgus monkey hepatic microsomes assessed as 2-(4-((5,6-diphenylpyrazin-2-yl)(isopropyl)amino)butoxy)acetic acid production in presence of 100 uM PMSF relative to control; assay type: ADME, Macaca fascicularis, Liver; parameters: scale not given: the % may be the effect or the level left
[9] = Hydrolytic rate in cynomolgus monkey hepatic microsomes assessed as 2-(4-((5,6-diphenylpyrazin-2-yl)(isopropyl)amino)butoxy)acetic acid production in presence of 1000 uM PMSF relative to control; assay type: ADME, Macaca fascicularis, Liver; parameters: scale not given: the % may be the effect or the level left
[10] = test system: Plasma; assay: Hydrolytic rate in Sprague-Dawley rat plasma assessed as 2-(4-((5,6-diphenylpyrazin-2-yl)(isopropyl)amino)butoxy)acetic acid production per mg of protein at 10 uM; assay type: ADME, cell-free
[11] = Hydrolytic rate in Beagle dog hepatic microsomes assessed as 2-(4-((5,6-diphenylpyrazin-2-yl)(isopropyl)amino)butoxy)acetic acid production per mg of protein at 10 uM; assay type: ADME, Canis lupus familiaris, Liver
[12] = test system: Liver microsomes; assay: Hydrolytic rate in Sprague-Dawley rat hepatic microsomes assessed as 2-(4-((5,6-diphenylpyrazin-2-yl)(isopropyl)amino)butoxy)acetic acid production per mg of protein at 10 uM; assay type: ADME, Microsome

SMILES | Activity [1] [nmol/min] | Activity [2] [nmol/min] | Tmax [3] [h] | Cmax [4] [ng/mL] | AUC [5] [ng·h/mL] | t1/2 [6] [h] | Activity [7] [%] | Activity [8] [%] | Activity [9] [%] | Activity [10] [nmol/min] | Activity [11] [nmol/min] | Activity [12] [nmol/min]
CC(C)N(CCCCOCC(=O)NS(=O)(=O)c1ccccc1)c1cnc(-c2ccccc2)c(-c2ccccc2)n1 | 0.711 | 0.017 |  |  |  |  |  |  |  |  |  | 
CC(C)N(CCCCOCC(=O)NS(N)(=O)=O)c1cnc(-c2ccccc2)c(-c2ccccc2)n1 | 0.112 | 0.03 | 6 | 20 | 374 |  |  |  |  |  |  | 
CC(C)N(CCCCOCC(=O)NS(=O)(=O)C(C)C)c1cnc(-c2ccccc2)c(-c2ccccc2)n1 | 0.152 | 0.012 | 10 | 13 | 170 | 14.5 |  |  |  |  |  | 
CC(C)N(CCCCOCC(=O)NS(=O)(=O)C(F)(F)F)c1cnc(-c2ccccc2)c(-c2ccccc2)n1 | 0.06 | 0.024 | 4 | 31 | 308 | 8.5 |  |  |  |  |  | 
CC(C)N(CCCCOCC(=O)NS(=O)(=O)c1cccs1)c1cnc(-c2ccccc2)c(-c2ccccc2)n1 | 0.468 | 0.008 |  |  |  |  |  |  |  |  |  | 
CC(C)N(CCCCOCC(=O)NS(=O)(=O)N1CCOCC1)c1cnc(-c2ccccc2)c(-c2ccccc2)n1 | 0.208 | 0.015 |  |  |  |  |  |  |  |  |  | 
CC(C)N(CCCCOCC(=O)NS(C)(=O)=O)c1cnc(-c2ccccc2)c(-c2ccccc2)n1 [SELEXIPAG] | 0.057 | 0.019 | 14 | 35 | 859 | 10.7 | 21.4 | 0 | 0 | 0.5 | 0.03 | 0.09
